Assay: gradient 5% acetonitrile 3 min, to 50% in 2 min, to 85% in 15 min, held 3 min, 100 µL/min
Settings: column: Zorbax Extend-C18 2.1 x 50 mm; eluents: water / acetonitrile, 0.1% formic acid
How it was run: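 Pure standards were run in mixtures of ~100 molecules by HPLC coupled to a quadrupole time-of-flight mass spectrometer. The column was a Zorbax Extend-C18 (2.1 × 50 mm, 1.8 μm) at 100 μL/min, with water and acetonitrile each containing 0.1% formic acid, in positive and negative ionization mode. Dead and dwell volumes were 40 μL and 900 μL. Retention time was taken from computationally picked adduct peaks, each manually inspected, with data collected over 3 months.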

SMILES	RP-LC retention time [s]
CCCn1cnnc1C1CCCCN1S(=O)(=O)c1cccc(C#N)c1 (stereo unspecified)	748
COc1ccc(CNC(=O)c2nnc(-c3ccc(S(=O)(=O)N(C)C)cc3)o2)c(OC)c1	865
O=C(NCc1cccc(C(F)(F)F)c1)C1CCCN(c2cnc3nccnc3c2)C1 (stereo unspecified)	754
CCOC(=O)c1ccc(NS(=O)(=O)c2cc3n(c2)CCN(CC)C3=O)cc1	744
CCOC(=O)c1c(C)oc2nc(C)nc(NCCCN(CC)c3ccccc3)c12	825
Cc1ccc(NC(=O)C2CCCN(c3ncnc4c3nc3n4CCCCC3)C2)cc1F (stereo unspecified)	785
Cn1c(C2CCN(C(=O)Nc3cccc(C(F)(F)F)c3)CC2)cc(=O)n2nccc12	717
COc1cc(OC)c(NC(=O)Cn2nc3c(cc2=O)CCCC3)cc1Cl	719
CCOc1ncccc1C(=O)Nc1cccc(-c2csc3nc(C)cc(=O)n23)c1	774
CCn1cc(C(=O)Nc2ccccc2F)c2cccnc21	812
CCCCn1c(=O)c2ccccc2n(Cc2nc(-c3ccc(OC(C)C)cc3)no2)c1=O	1290
O=C(O)c1cc(N2CCN(CC(=O)N3CCCCCC3)CC2)ccc1NC(=O)C1CCC1	636
O=C1/C(=C/c2ccccc2)CN(C(=O)/C=C/c2ccccc2)C/C1=C\c1ccccc1	1140
Cc1ccc(CNC(=O)c2cc3sc(C)c(CN4CCOCC4)c3[nH]2)o1	656
CCNC(=O)N1CCCN(S(=O)(=O)C(C)C)CC1	614
Cc1cc(C)cc(NC(=O)Cn2c(N3CCC(C)CC3)nc(C)cc2=O)c1	796
CCOc1ccc(S(=O)(=O)[C@H]2CS(=O)(=O)C[C@@H]2N2CCN(c3ccccn3)CC2)cc1	640
CCCN(C(=O)C1CCC(C)CC1)c1nc(-c2ccccc2)cs1 (stereo unspecified)	748
Cc1cccc(-c2nnc(-c3ccc(Cl)c(S(=O)(=O)N4CCCC4)c3)o2)c1	1150
CN(C)[C@@H]1CN(Cc2cccc(OC(F)(F)F)c2)CC[C@@H]1CO	585

SMILES	RP-LC retention time [s]
CCn1cc(CN2CCC(N3CC4(CCCCC4)C3c3ccncc3)CC2)cn1 (stereo unspecified)	565
CCc1nc(C)c(C)c2nn(Cc3cccc(C#N)c3)c(=O)n12	919
CCNC(=O)c1ccc(-n2c(C)ccc2C)nc1	566
CCOC(=O)N1CCN(C(=O)CSc2ccc(-n3cccn3)nn2)CC1	657
O=C(Nc1cnc(N2CCCC2)nc1)c1cccs1	667
C=CCN1C(=O)COc2ccc(-c3csc(NC(=O)c4cccc(C)c4)n3)cc21	1060
CCc1cccc(NC(=O)C2CCN(S(=O)(=O)c3cn(C)cn3)CC2)c1	732
CCC1CCCCN1CCNC(=O)CCc1cc2ccc(C)cc2[nH]c1=O (stereo unspecified)	621
Cc1ccc(CNC(=O)C2CCN(c3cnn(C)c(=O)c3)C2)o1 (stereo unspecified)	641
COc1ccccc1N1CCN(Cc2nc(-c3ccc(N4CCOCC4)nc3)no2)CC1	694
CCOCCCNC(=O)C(C)Sc1ccc(=O)n(-c2ccc(C)c(Cl)c2)n1 (stereo unspecified)	797
CS(=O)(=O)N1CCC(OC2CCN(C(=O)Nc3cccc(C(F)(F)F)c3)CC2)CC1	846
Cc1ccccc1-c1noc(Cc2nnc(-c3cccc(Cl)c3)o2)n1	1140
CC(C)N1CCC(CC(=O)N2CCc3c(c(-c4nc(C5CC5)no4)nn3C)C2)CC1	612
CC(=O)c1ccc(N2CCN(C(=O)CN3C(=O)C4C5C=CC(C5)C4C3=O)CC2)cc1 (stereo unspecified)	644
CN1C(=O)CCc2cc(NS(=O)(=O)c3ccccc3C(F)(F)F)ccc21	779
CC1=CC(=C2C=CC(=O)C=C2)C=C(C)N1C	620
CCOc1ccc(OCC)c(N2C=C(C#N)S(=O)(=O)c3ccccc32)c1	1000
COC(=O)c1ccc2c(=O)n(-c3ccc4c(c3)OCO4)c(N3CCC(C)CC3)nc2c1	1150
CCOC(=O)c1cc(-c2ccccc2)n(CCC(=O)N2CCN(c3ccccn3)CC2)c1C	715

Results, then the compound that gave them:

RP-LC retention time [s]	SMILES
910	Cc1ccc(C)c(NC(=O)Cn2c(=O)cc(-c3nc(C)no3)c3ccccc32)c1
774	Cc1cccc(-c2ncccc2CNS(=O)(=O)c2cc(F)ccc2C)c1
1030	O=C(Nc1ccc(Cl)cc1)C(=O)c1c[nH]c2ccccc12
823	COc1ccccc1N1CCN(c2cc(SCC(=O)NCc3ccccc3)ncn2)CC1
663	CC(=O)Nc1ccc(NC(=O)c2ccc(-c3ccnc(N4CCCC4)n3)cc2)cc1
867	CCS(=O)(=O)Nc1cccc(OCc2nnc(-c3ccc(C)cc3)o2)c1
798	CCc1ccc(S(=O)(=O)N2CCC3(CC2)NCCN=C3NCc2cc(F)cc(F)c2)cc1
703	Cc1nc2cc(N3CC(C(=O)Nc4ccccc4)CC3=O)ccc2o1 (stereo unspecified)
898	CCCN1C(=O)CN(S(=O)(=O)c2ccccc2)CC1(C)C(=O)NCc1ccc(C)cc1 (stereo unspecified)
804	CCCCOc1ccc(CNC(=O)C2CCN(Cc3cn(C)c4ccc(OC)cc34)CC2)cc1
804	Cn1cccc1-c1cc2n(n1)CCC(=O)N2CCCC(=O)NCc1cccc(Cl)c1
738	O=C(COc1ccc(Cl)cc1Cl)Nc1c(-c2ccccc2)nc2ccccn12
744	CCn1c(=O)c2ccn(CC(=O)NCc3ccc(SC)cc3)c2n(CC)c1=O
734	Cc1ccn2cc(-c3ccc(NC(=O)c4cccc(I)c4)cc3)nc2n1
665	O=C(NC1CCN(Cc2ccccc2)CC1)c1ccc2nc3ccc(Cl)cc3c(=O)n2c1
590	O=C(c1ccc2ccccc2n1)N1C[C@@H](CO)[C@H](c2ccccn2)C1
915	Cc1cc(F)ccc1NC(=O)c1nnn(-c2ccc(F)cc2)c1-c1cccnc1
962	O=C(NCc1ccco1)C(=O)c1cccn1Cc1ccc(F)cc1
610	Cc1nnc(-c2ccc3ccn(CC(=O)Nc4cccc(CN5CCCC5)c4)c3c2)o1
962	Cc1nc(-c2ccc(-n3cc(C(=O)Nc4ccc(Br)cc4F)c(C)n3)cc2)no1
852	COc1ccccc1CNC(=O)c1nnc(-c2ccc(S(=O)(=O)N(C)C)cc2)o1
788	Cc1ccc(C(=O)NCc2[nH]nc3ccccc23)cc1C
895	Cc1ccc(C)c(-c2cn3ccn(-c4ccc(F)cc4)c(=O)c3n2)c1
568	CN(CC(=O)Nc1cccnc1)c1nc2ccccc2s1
782	O=C(NCCNC(=O)Nc1cccc(Cl)c1)Nc1cccc(Cl)c1
640	O=C(Cn1ncc2c(N3CCN(c4ccccn4)CC3)ncnc21)Nc1ccc(Cl)cc1F

Source: the METLIN SMRT retention time set (Domingo-Almenara et al. 2019)
